Consider one molecule from patent publication US20130274174A1, “THERAPEUTIC COMBINATION OF DAPTOMYCIN AND PROTEIN SYNTHESIS INHIBITOR ANTIBIOTIC, AND METHODS OF USE” (priority 2011, published 2013).

For data set [1], the system named is Streptococcus pyogenes 717. The data set is described as follows: FIC checkerboard broth microdilution. Format: cell-based. How it is done: (§1) Test articles of stock solutions of daptomycin (Cubist, lot MCB2007) and TR-700 were prepared at 40 times the final target concentration in DMSO:water (1:1). DMSO was added first, the solutions were allowed to stand for 60 minutes and then the water was added. TR-700 formed a precipitate above 1280 μg/ml; therefore, this was the highest concentration used. […] The final DMSO concentration was 2.5%. The final drug concentrations in the FIC assay plates were set to bracket the MIC value of each test article for each test organism, unless the strain was totally resistant to the test article.
(§2) The test organisms were originally received from clinical sources, or from the American Type Culture Collection. Upon receipt in our laboratory, the isolates were streaked onto the appropriate growth medium: Tryptic Soy Agar II (Becton Dickinson, Sparks, Md.) supplemented with 5% defibrinated sheep blood for streptococci, and unsupplemented Tryptic Soy Agar II for all other organisms. Colonies were harvested from these plates and a cell suspension was prepared in Tryptic Soy Broth (Becton Dickinson) containing cryoprotectant. Aliquots were then frozen at −80° C. On the day prior to assay, the frozen seeds of the organisms to be tested in that session were thawed and streaked for isolation onto the appropriate agar medium plates and incubated overnight at 35° C. The test organisms were: • Staphylococcus aureus 2053 (methicillin-resistant) • Enterococcus faecalis 795 (vancomycin-susceptible) • Streptococcus pyogenes 717 • Streptococcus pneumoniae 880 (penicillin-resistant) • Escherichia coli 102 (ATCC 25922)
(§3) Streptococci were tested in Mueller Hinton II Broth (Becton Dickinson; Lot 7024879 and 7143673) supplemented with 2% lysed horse blood (Cleveland Scientific, Bath, Ohio; Lot H10472). All other organisms were tested in Mueller Hinton II Broth. The broth was prepared at 1.05× normal weight/volume to offset the 5% volume of the drugs in the final test plates.
(§4) FIC values were determined using a broth microdilution method previously described. See, Sweeney, M T and Zurenko, G E. 2003. In vitro activities of linezolid combined with other antimicrobial agents against staphylococci, enterococci, pneumococci and selected Gram-negative organisms. Antimicrob. Agents Chemother. 47:1902-1906. Automated liquid handlers (Multidrop 384, Labsystems, Helsinki, Finland; Biomek 2000 and Multimek 96, Beckman Coulter, Fullerton Calif.) were used to conduct serial dilutions and liquid transfers.
(§5) The wells (columns 2-12) of standard 96-well microdilution plates (Falcon 3918) were filled with 150 μL of 50% DMSO using the Multidrop 384. Column 1 wells were filled with 300 μl of the 40× stock solutions. […]

Data set [2] relates to Staphylococcus aureus 2053 (MRSA). The data set is described as follows: FIC checkerboard broth microdilution. Format: cell-based. Particulars: agent alone. As to the method:
as §1, §2, §3, §4, §5
A general note: Broth dilution looks for growth in wells or tubes with falling amounts of substance.

The test system of data set [3] is Streptococcus pneumoniae 880. The data set is described as follows: FIC checkerboard broth microdilution. Type of data set: cell-based. Particulars: agent alone. As to the method:
as §1, §2, §3, §4, §5

Data set [4] deals with Enterococcus faecalis 795 (VSE). The data set is described as follows: FIC checkerboard broth microdilution. Type of data set: cell-based. The settings on record: agent alone. How it is done:
as §1, §2, §3, §4, §5

Data set [5] is described as follows: Solubility of test articles in stock solutions and at final test concentrations. Format: physicochemical. Particulars: stock solution in DMSO:water (1:1). As to the method:
Test articles of stock solutions of daptomycin (Cubist, lot MCB2007) and TR-700 were prepared at 40 times the final target concentration in DMSO:water (1:1). DMSO was added first, the solutions were allowed to stand for 60 minutes and then the water was added. […] The final DMSO concentration was 2.5%. The final drug concentrations in the FIC assay plates were set to bracket the MIC value of each test article for each test organism, unless the strain was totally resistant to the test article.

As usually defined, the MIC is the lowest concentration that inhibits growth of the organism. With `Cn1nnc(-c2ccc(-c3ccc(N4C[C@H](CO)OC4=O)cc3F)cn2)n1` [TR-700, Tedizolid], the MIC in data set [1] came to 0.125 µg/mL; in data set [2], 0.5 µg/mL; in data set [3], 0.25 µg/mL; in data set [4], 0.5 µg/mL. Besides, in data set [5], the “concentration above which a precipitate formed” value is on record as “above 1280 μg/ml”.
